{
  "source": "paper PMC6493727",
  "about": "“FluoroCellTrack: An algorithm for automated analysis of high-throughput droplet microfluidic data” (PLoS ONE, 2019)",
  "tested_on": "OPM-2 cells",
  "assay": "Dose response of single OPM-2 cells to Bortezomib, live/dead staining in a droplet trapping array",
  "assay_type": "cell-based",
  "conditions": "for Dead Cells / Live Cells: Calcein AM/EthD-1 staining; for Dead Cells / Live Cells / Overlapping Cells: FluoroCellTrack automated count, n=787 droplets",
  "description": "First, a mask was generated by detecting differently colored cells from the input image, Fig 3A. This mask (Fig 3B) was overlapped with the input image and was subjected to edge detection, dilation and erosion to yield Fig 3C, which was then segmented through random walker algorithm to detect and distinguish attached cells. Random walker segmentation algorithm was used over traditional watershed algorithm due to its highly precise probabilistic interpretation of local maxima (Fig 3D). The distinguished contours from this image were then filtered for area, where cellular area equal to or greater than 130 pixels were outlined and labeled as shown in Fig 3E. 130 was selected as the thresholding value due to the mean cellular area being ~140 pixels. This step was essential to exclude debris to eliminate false positives. However, in case of co-culture platforms, where primary cells are of the same size as that of the secondary cells, or in systems where the debris is of the same size as that of the cells, specific cellular or organelle staining can be used to distinguish these features and the extensive palette used in computer vision aids in easy detection of such features. […] For instance, similar features with slight deviations in shape, size and orientation were easily detected by the droplet/contour detection steps of FluoroCellTrack but would need a repository of many templates while using the template matching feature, showing that the latter can be highly uneconomical. The broad palette of colors in computer vision can be exploited here to detect any fluorescent cell and as an example here, the contour detection step was implemented to quantify actual cellular viability data as shown in Fig 4. Lower [B, G, R]: [0, 51, 0] and upper [B, G, R]: [153, 255, 153] boundaries were given for live cells and, dead cells were identified with the lower and upper color boundaries at; [153, 153, 255] while overlapping cells were identified with lower and upper color boundaries of [0, 51, 51]; [153, 255, 255]. Cells with overlapping signals in both the green and red filter sets represent cells with compromised plasma membranes (indicative of a dead cell), but with remaining esterase activity to react with the Calcein AM. These cells were noted as ‘dying’ cells to distinguish them from the clean live and dead signals using the other contour boundaries. The contours with specific colors were detected from the input images, where the positively detected live, dead and overlapping cells with an area equal to or greater than 130 pixels were outlined with distinct colors: live cells in red, dead cells in blue and overlapping cells in purple (Fig 4). The outlined cell-center map was overlaid with the droplet center map and scanned to fit within 25<R<50-micron values (denoted by white arrows), to account for single/multiple cell encapsulation information as shown in the output data of Fig 4. This step was essential to calculate the single-cell encapsulation efficiency and to eliminate cells that were freely floating in the device, thus including cells that were only inside the droplets. Additionally, the user can easily eliminate the droplet detection step to use this contour detection as a stand-alone platform (similar to ImageJ and Cell Profiler) to detect and quantify properties of fluorescent cells from other microfluidic or non-microfluidic applications. The advantage of FluoroCellTrack over current software tools like ImageJ and Cell Profiler lies in the fact that the former can be employed in non-droplet microfluidic platforms in addition to droplet microfluidics, but the latter cannot be used to quantify high-throughput droplet microfluidic data.\nAn important application of any automated platform is to count cells and sort them based on their fluorescent response. As an example, the dose-dependent single cell response of OPM-2 cells to a clinical inhibitor, Bortezomib was observed. […]",
  "data": [
    {"smiles": "CC(C)C[C@H](NC(=O)[C@H](Cc1ccccc1)NC(=O)c1cnccn1)B(O)O", "note": "[BTZ, Bortezomib]", "values": [
      {"measurement": "Dead Cells", "setting": "1 nM BTZ, Day 1 (24 h)", "value": 5},
      {"measurement": "Live Cells", "setting": "1 nM BTZ, Day 1 (24 h)", "value": 311},
      {"measurement": "Overlapping Cells", "setting": "1 nM BTZ, Day 1 (24 h), overlapping = dying cells (green and red signal)", "value": 28},
      {"measurement": "Dead Cells", "setting": "1 nM BTZ, Day 2 (48 h)", "value": 10},
      {"measurement": "Live Cells", "setting": "1 nM BTZ, Day 2 (48 h)", "value": 53},
      {"measurement": "Overlapping Cells", "setting": "1 nM BTZ, Day 2 (48 h), overlapping = dying cells", "value": 45},
      {"measurement": "Dead Cells", "setting": "1 nM BTZ, Day 3 (72 h)", "value": 53},
      {"measurement": "Live Cells", "setting": "1 nM BTZ, Day 3 (72 h)", "value": 140},
      {"measurement": "Overlapping Cells", "setting": "1 nM BTZ, Day 3 (72 h), overlapping = dying cells", "value": 206},
      {"measurement": "viability of single OPM-2 cells", "setting": "1 nM, 10 nM and 100 nM, 24 h, 48 h and 72 h incubation", "value": "decrease in viability at increasing concentrations and incubation times"},
      {"measurement": "Dead Cells", "setting": "10 nM BTZ, Day 1 (24 h)", "value": 5},
      {"measurement": "Live Cells", "setting": "10 nM BTZ, Day 1 (24 h)", "value": 49},
      {"measurement": "Overlapping Cells", "setting": "10 nM BTZ, Day 1 (24 h), overlapping = dying cells", "value": 38},
      {"measurement": "Dead Cells", "setting": "10 nM BTZ, Day 2 (48 h)", "value": 67},
      {"measurement": "Live Cells", "setting": "10 nM BTZ, Day 2 (48 h)", "value": 15},
      {"measurement": "Overlapping Cells", "setting": "10 nM BTZ, Day 2 (48 h), overlapping = dying cells", "value": 113},
      {"measurement": "Dead Cells", "setting": "10 nM BTZ, Day 3 (72 h)", "value": 92},
      {"measurement": "Live Cells", "setting": "10 nM BTZ, Day 3 (72 h)", "value": 0},
      {"measurement": "Overlapping Cells", "setting": "10 nM BTZ, Day 3 (72 h), overlapping = dying cells", "value": 107},
      {"measurement": "Dead Cells", "setting": "100 nM BTZ, Day 1 (24 h)", "value": 75},
      {"measurement": "Live Cells", "setting": "100 nM BTZ, Day 1 (24 h)", "value": 0},
      {"measurement": "Overlapping Cells", "setting": "100 nM BTZ, Day 1 (24 h), overlapping = dying cells", "value": 100},
      {"measurement": "Dead Cells", "setting": "100 nM BTZ, Day 2 (48 h)", "value": 320},
      {"measurement": "Live Cells", "setting": "100 nM BTZ, Day 2 (48 h)", "value": 3},
      {"measurement": "Overlapping Cells", "setting": "100 nM BTZ, Day 2 (48 h), overlapping = dying cells", "value": 149},
      {"measurement": "Dead Cells", "setting": "100 nM BTZ, Day 3 (72 h)", "value": 108},
      {"measurement": "Live Cells", "setting": "100 nM BTZ, Day 3 (72 h)", "value": 0},
      {"measurement": "Overlapping Cells", "setting": "100 nM BTZ, Day 3 (72 h), overlapping = dying cells", "value": 17}
    ]}
  ]
}
